Experimental data published in publication PMC12775823, “Glucosylceramide regulates depression through activating peroxisome proliferator-activated receptor gamma in dorsal striatum” (Theranostics, 2026).

Assays:
PPARγ [1] = tested on: T1, PPARγ; assay: Lipid-protein pull down assay, dorsal striatum lysate; assay type: binding; settings: GlcCer-beads, dorsal striatum of mice
T1 construct: from tissue; host or cells: mouse dorsal striatum
Description: Dorsal striatal tissues were cut into small pieces and then centrifuged at 13,000 g for 15 min at 4 °C. Supernatants were collected, and protein concentrations were determined using BCA assay. GlcCer-beads were equilibrated by washing them three times with ice-cold PBS. The clarified cell lysate was added to the equilibrated beads, then the mixture was incubated on a rotator at 4 °C for overnight, use approximately 500 µg of total protein per reaction. After incubation, the beads were washed three times with ice-cold PBS. Following the final wash, the beads were resuspended in SDS-PAGE sample buffer and heat at 95°C for 5 min to elute the bound proteins. The eluted sample was used to western blotting analysis.

PPARγ [2] = tested on: T2, PPARγ; assay: PPARγ transcription activity assay (PPRE binding), N2a cells; assay type: cell-based
T2 construct: endogenous in cells; host or cells: N2a cells (nuclear extract)
Description: Nuclear extracts were prepared from N2a cells using a nuclear extraction kit according to the manufacturer protocol. The binding reaction between PPARγ and PPRE was carried out at 4°C for 16 h using 3 μg of nuclear extracts. The binding activity between PPARγ and PPRE was indicated by the change of optical density (OD) at 405 nm, and an enzyme reaction was measured by HRP-conjugated antibody in complex of PPRE/ PPARγ/antibody.

PPARγ [3] = assay: PPRE-luciferase (dual-luciferase) activity assay in N2a cells; assay type: cell-based; settings: N2a cells transfected with wild-type Pparg
Description: N2a cells were seeded into 24-well plates and cultured for 24 hours before transfection. A DNA mixture containing the PPRE-luciferase reporter plasmid (0.5 μg), PPARγ/ PPARγ mutation plasmid (0.5 μg) and an internal control plasmid pRL-SV-40 (25 ng) was transfected using lipofectamine 3000 transfection reagent (L3000001, Invitrogen, USA) according to the manufacturer's recommendations. After transfection, the cells were incubated for an additional 48 h.

PPARγ target genes = assay: qRT-PCR of PPARγ target genes in PPARγ-overexpressing N2a cells; assay type: cell-based; settings: 0.1, 1 and 10 μM
CRS-induced mice = assay: Behavioral tests (OFT, EPMT, LDT, SPT, FST) in chronic restraint stress mice, intra-dorsal striatal infusion; assay type: in vivo
Description: For intracranial injection, mice were surgically implanted with sterilized guide cannulae in dorsal striatum. […] Mice were intraperitoneally injected with CNO (1 mg/kg/d) before behavioral test.
Chronic restraint stress (CRS). For the CRS protocol, male C57BL/6J mice (8-10 weeks old) were obtained from Charles River Laboratories (Beijing, China). Mice were individually placed into well-ventilated 50 mL conical restraint tube (suitable for mice weighing 20-25 g) with multiple holes for 4 h daily between 10:00 AM and 2:00 PM to minimize circadian rhythm variations. The restraint stress procedure was conducted for 14 consecutive days. Then, all behavioral test were performed between 10:00 AM and 18:00 PM.
Elevated plus maze test (EPMT).
Light-dark Transition test (LDT).
Sucrose preference test (SPT).
Forced swimming test (FST).

[4] = LC-MS of GlcCer levels in dorsal striatum of CRS-induced mice; assay type: in vivo; settings: intra-dorsal striatum infusion of pioglitazone, GlcCer or combination
Description: The procedure for the extraction of sphingolipids was established according to the LIPID MAPS protocol with modifications. Briefly, dorsal striatal tissues were added 0.5 mL of MeOH, 0.25 mL of CHCl3 and 7.5 μL of internal standards cocktail (2.5 μM). For sphingolipidomics, 5 μL of internal standards mixture (LM6002, Avanti polar lipids) was added. The mixture was then ultrasonicated for 45 s at room temperature and incubation at 48°C overnight. To avoid potentially interfering glycerolipids, 75 μL of KOH in MeOH (1M) was added, followed by incubation in a heat block at 200 rpm for 2 h at 37 °C. After neutralization, a four-step extraction process was performed to obtain SPL extract for analysis. The supernatant was transferred to a new Eppendorf tube and the resides were added l mL of MeOH and 2 mL of CHCl3, followed by centrifugation at 3800 rpm for 8 min. […] Sphingolipidomics were measured with ultra-high-performance liquid chromatography (UPLC) coupled with hybrid Quadrupole-Orbitrap high resolution mass spectrometry (Q-Exactive-HRMS). […] For […] quantitation, brain tissues were quantified by UPLC-MS/MS using a Q-Exactive-HRMS with UPLC. […] Quantification of […] with various fatty acid chain lengths were achieved using the calibration curve of each GlcCer species with closest number of chain length. […]

[5] = CRS mice, pioglitazone 1 μM, GlcCer 200 μM, 1 μL/side, or combination

**Q.** With Glucosylceramide [GlcCer] as the substance, how does the “interaction between PPARγ and GlcCer (lipid-protein binding assay)” value (PPARγ [1]) read?
**A.** Its value is “direct interaction”.

**Q.** And the “PPARγ transcriptional (DNA binding) activity in N2a cells” value (PPARγ [2]; Figure 5H, GlcCer, pioglitazone or combination)?
**A.** Its value is “increased PPARγ transcriptional activity in a dose-dependent manner”.

**Q.** What about the “PPARγ transcriptional activity, nuclear extracts from N2a cells” value (PPARγ [2]; pioglitazone (100 nM), GlcCer (10 μM), or their combination, Figure S7F) of the same substance?
**A.** The value was “significantly increased”.

**Q.** What about the “PPARγ activity (dual-luciferase)” value (PPARγ [3]) of the same substance?
**A.** The value was “increased”.

**Q.** What about the “expression of Adipoq and Leptin” value (PPARγ target genes) of the same substance?
**A.** Its value is “robustly upregulated”.

**Q.** What about the “expression of adipogenesis-related genes (Srebp-1c, Adrp, Fabp4, Fasn, Cd36)” value (PPARγ target genes) of the same substance?
**A.** Its value is “little or no effect”.

**Q.** What about the “time spent in the center area (OFT)” value (CRS-induced mice; CRS mice vs vehicle, pioglitazone 1 μM, GlcCer 200 μM, 1 μL/side, or combination) of the same substance?
**A.** The value was “significant increase”.

**Q.** And the “stress-induced depression-like behaviors (overall)” value (CRS-induced mice; CRS mice, administration of GlcCer, pioglitazone or combined)?
**A.** Its value is “reverses”.

**Q.** And the “immobility duration in the FST” value (CRS-induced mice; [5])?
**A.** The value was “decreased”.

**Q.** And the “sucrose preference in the SPT” value (CRS-induced mice; [5])?
**A.** The value was “increased”.

**Q.** And the “GlcCer levels in the dorsal striatum (LC-MS)” value [4]?
**A.** The value was “increased”.
